One data set has as its target T1, CDK1 (Homo sapiens, UniProt P06493).
T1 construct: purchased BPS
Put plainly: Kinase test in vitro (LANCE Ultra, Ulight-4EBP1). It counts as biochemical. The source says:
(§1) Recombinant CDK1, CCNB1 and CDK9, and CCNT were purchased from BPS; CDK2, CCNA1, CDK4, CCND1 and CDK6, and CCND1 were purchased from Invitrogen; CDK4, CycD3 and CDK6, and CycD3 were purchased from Carna. Adenosine triphosphate (ATP) was purchased from Life tech. Substrate Ulight-4EBP1 and the corresponding detection antibody were purchased from Perkinelmer. LANCE Ultra system from Perkinelmer is used as the detection system.
(§2) In the kinase test, a compound to be tested was 1:3 diluted for 8 gradient points and added into a reaction plate, and then an appropriate amount of recombinase was added. A buffer [50 mM HEPES pH7.5, 10 mM MgCl2, 3 mM MnCl2, 1 mM EGTA, 0.01% Tween-20, 1 mM TCEP] containing ATP, Ulight-4EBP1 premix at a predetermined concentration was subsequently added, and the kinase reaction began at room temperature. A test solution pre-mixed with 10 mM EDTA and detection antibody was added after a suitable reaction time, and then the fluorescence value was read on Tecan infinite pro after reacting for 1 hour at room temperature. The IC50 was calculated using a four-factor model fitting in a XLfit software.
Background: Time-resolved FRET reads energy transfer from a long-lived donor to a nearby acceptor.

For the next data set, the target named is T2, CDK6 (Homo sapiens, UniProt Q00534).
T2 construct: purchased Invitrogen or Carna
T2 sequence (Q00534 whole entry): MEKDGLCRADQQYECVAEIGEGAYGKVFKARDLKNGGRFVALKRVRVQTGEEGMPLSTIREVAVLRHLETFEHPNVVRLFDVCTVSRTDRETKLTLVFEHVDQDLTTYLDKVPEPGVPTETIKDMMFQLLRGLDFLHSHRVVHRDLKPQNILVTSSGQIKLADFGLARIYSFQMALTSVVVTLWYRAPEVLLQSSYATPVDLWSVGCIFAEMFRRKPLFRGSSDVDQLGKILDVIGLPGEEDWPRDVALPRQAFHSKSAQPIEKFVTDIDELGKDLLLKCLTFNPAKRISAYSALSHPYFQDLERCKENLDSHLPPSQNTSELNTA
T2 sequence (P24385 whole entry partner): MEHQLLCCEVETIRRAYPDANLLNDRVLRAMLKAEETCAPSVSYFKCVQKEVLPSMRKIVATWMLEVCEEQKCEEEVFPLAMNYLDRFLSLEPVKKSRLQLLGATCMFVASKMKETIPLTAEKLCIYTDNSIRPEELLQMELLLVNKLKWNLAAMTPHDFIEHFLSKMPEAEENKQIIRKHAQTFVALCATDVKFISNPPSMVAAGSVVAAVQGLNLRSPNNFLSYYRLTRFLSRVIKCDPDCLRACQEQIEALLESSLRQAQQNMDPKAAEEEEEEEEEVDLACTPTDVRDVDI
Briefly: Kinase test in vitro (LANCE Ultra, Ulight-4EBP1). Format: biochemical.
Text: as §1, §2

In the next data set the target is T3, CDK2 (Homo sapiens, UniProt P24941).
T3 construct: purchased Invitrogen
Put plainly: Kinase test in vitro (LANCE Ultra, Ulight-4EBP1). Format: biochemical.
Text: as §1, §2

The target of the next data set is T4, CDK4 (Homo sapiens, UniProt P11802).
T4 construct: purchased Invitrogen or Carna
T4 sequence (P11802 whole entry): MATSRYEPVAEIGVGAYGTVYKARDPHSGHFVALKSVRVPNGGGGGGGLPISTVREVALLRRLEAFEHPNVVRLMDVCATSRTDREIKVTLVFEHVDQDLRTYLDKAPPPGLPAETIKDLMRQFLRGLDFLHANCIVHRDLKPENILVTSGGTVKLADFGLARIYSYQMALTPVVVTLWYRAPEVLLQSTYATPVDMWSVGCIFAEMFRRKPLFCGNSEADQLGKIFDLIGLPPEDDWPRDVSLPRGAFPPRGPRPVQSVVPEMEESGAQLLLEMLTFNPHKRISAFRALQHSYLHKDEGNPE
T4 sequence (P24385 whole entry partner): as the sequence (P24385 whole entry partner) above
Put plainly: Kinase test in vitro (LANCE Ultra, Ulight-4EBP1). Format: biochemical.
Text: as §1, §2

The nature of data set [1]: Pharmacokinetics and brain distribution test. Format: in vivo, SD rats. The conditions noted are these: rats, oral 10 mg/kg. As for the experimental part:
Test Animals: healthy adult male SD rats (weight 210-230 g per rat, 12 rats, fasted overnight, fed 4 hours after dosing), provided by SLAC company; preparation of oral solution: 40.14 mg of compound P-53 was weighed and added into a clean tube, and 36.479 mL of 0.5% HPC-H (TCI, E6ZQA) in acetate buffer (PH4.5) was added into the tube. The mixture was then vortexed for 1-2 min. Then the solution was sonicated for 20-25 min and stirred for 20-25 min.
SD rats were administered via intragastric administration (10 mg/kg (10 mL/kg)); samples were collected at 0.5, 1, 2 and 4 hr after dosing (total 4 timepoints), wherein only plasma samples were collected continuously, and brain tissue and cerebrospinal fluid were collected at each time point.
Blood collection: The animal was restrained manually and at each time point collected approximately 150 μL blood via tail vein into a K2EDTA-containing tube. Within 15 minutes, the blood sample was put on wet ice and centrifuged to obtain plasma sample (2000 g, 5 min under 4° C.). […]
Analytical method: the plasma and brain of SD rats were used as matrix, and Glipizide was used as an internal standard. […] The drug concentration was determined by LC-MS/MS method, the pharmacokinetic parameters in the plasma, brain tissue, and cerebrospinal fluid of rats are shown in Table 8: […]

Molecules are shown by their SMILES.

T1 sequence (P06493 whole entry): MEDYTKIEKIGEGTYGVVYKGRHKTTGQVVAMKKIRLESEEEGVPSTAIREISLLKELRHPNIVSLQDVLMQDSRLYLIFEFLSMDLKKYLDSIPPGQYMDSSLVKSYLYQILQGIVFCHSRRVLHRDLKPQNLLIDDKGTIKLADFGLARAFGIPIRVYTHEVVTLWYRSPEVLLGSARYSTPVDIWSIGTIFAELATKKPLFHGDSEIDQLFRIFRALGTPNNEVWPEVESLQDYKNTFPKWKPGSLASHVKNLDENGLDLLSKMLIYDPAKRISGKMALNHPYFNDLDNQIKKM
T1 sequence (P14635 whole entry partner): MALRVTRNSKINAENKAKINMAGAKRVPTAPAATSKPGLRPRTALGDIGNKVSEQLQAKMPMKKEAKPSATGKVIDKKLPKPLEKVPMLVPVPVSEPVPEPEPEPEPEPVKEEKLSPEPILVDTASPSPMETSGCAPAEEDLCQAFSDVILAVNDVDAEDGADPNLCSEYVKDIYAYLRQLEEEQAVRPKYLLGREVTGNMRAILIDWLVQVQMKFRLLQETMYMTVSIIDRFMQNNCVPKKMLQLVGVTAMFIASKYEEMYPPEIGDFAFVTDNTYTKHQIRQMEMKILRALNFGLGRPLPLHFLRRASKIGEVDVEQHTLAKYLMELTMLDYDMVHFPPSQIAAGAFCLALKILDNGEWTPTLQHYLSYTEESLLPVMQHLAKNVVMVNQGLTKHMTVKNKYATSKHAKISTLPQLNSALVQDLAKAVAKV

Broadly, the IC50 is the point on the concentration scale where inhibition reaches its midpoint. A higher IC50 goes with a need for much substance. As for `CCN1CCN(Cc2ccc(Nc3ncc4c(n3)-c3c(nc(C5CC5)n3C(C)C)C4)nc2)CC1` [Free base of compound of formula X, 2-cyclopropyl-N-(5-((4-ethylpiperazin-1-yl)methyl)pyridin-2-yl)-3-isopropyl-3,8-dihydroimidazo[4′,5′,4,5]cyclopenta[1,2-d]pyrimidin-5-amine], on CDK1, the midpoint of inhibition, the IC50, lay at 6.09 µM and the “inhibitory activity against CDK1 (in words)” value is given as “weak inhibitory activity”. On CDK6, inhibition was half-maximal at 0.057 µM (IC50) and the “inhibitory activity against CDK6 (in words)” value is reported as “strong inhibitory activity”. Also, at CDK2, the midpoint of inhibition, the IC50, lay at 8.75 µM and the “inhibitory activity against CDK2 (in words)” value is “weak inhibitory activity”. Further, on CDK4, the IC50 worked out at 0.01 µM and the “inhibitory activity against CDK4 (in words)” value is listed as “strong inhibitory activity”. For the same compound, the “brain permeability (in words)” value in data set [1] is on record as “can cross the blood-brain barrier”.

The record behind these values is patent US20210214358A1, “CDK4/6 INHIBITOR AND PHARMACEUTICALLY ACCEPTABLE SALT AND POLYMORPH THEREOF AND USE THEREOF” (SHANGHAI HAIYAN PHARMACEUTICAL TECHNOLOGY CO., LTD., priority 2018, published 2021).
